Series [1] relates to humans. The note with it: low doses of 0.4 g/m^2/day; cited from earlier work.
The test system of series [2] is rat-tumor model. The note with it: DFMO infusion; cited from earlier work.
The subject of series [3] is HCT116 colorectal cancer cells. In words: HCT116 24 h IC50 and cell viability. Format: cell-based, human.
Series [4] concerns ODC1 +263 G promoter/intron 1 luciferase plasmid. As to the kind of experiment: ODC1 promoter/intron 1 luciferase reporter transfection in HCT116 cells. As to conditions: 2 μM NSC176327, 24 h, normalized to time-matched DMSO. Format: cell-based, human. The procedure: (§1) HCT116 cells were transfected in 24-well plates. Cells were seeded at 0.1×10^6 cells/well 24 h prior transfection. Each well was transfected with 0.25 μg of each plasmid and 0.025 μg of Renilla-TK plasmid using 2.5 μL Lipofectamine 2000 reagent (Invitrogen) according to the manufacturer's instructions. The Renilla-TK plasmid was purchased from Promega and used as a transfection efficiency control in all promoter-reporter transfection experiments. For the overexpression experiments, ODC1 pGL3-Basic or Enhancer plasmids were co-transfected with the corresponding plasmid: pcDNA 3.0 empty vector, pcDNA3-c-MYC expression vector (Ricci et al., 2004) (Addgene plasmid 16011), full-length pN3-Sp1FL (Sapetschnig et al., 2004) (Addgene plasmid 24543), pN3-empty control (Addgene plasmid 24544), N-terminal mutate pPac-Sp1 (Courey and Tjian, 1988) (Addgene plasmid 12095) and pPac0 empty vector (Courey and Tjian, 1988) (Addgene plasmid 12094). After 5 h of transfection, the medium was replaced with fresh normal medium in the absence of antibiotics. […] Dual luciferase activities were measured using a Turner Designs TD-20/20 luminometer, as described by the manufacturer, and presented as relative luciferase units. Experiments were performed in triplicate, repeated at least twice, and analyzed for statistical significance (P<0.05) using two-sample t-tests (Microsoft Excel). […]
On the technique in general: Reporter assays use an easily measured gene product as a stand-in for the process of interest.

In series [5] the test system is ODC1 +263 T promoter/intron 1 luciferase plasmid. The description is as above. In kind it is cell-based, human. As to conditions: 2 μM NSC176327, 24 h, normalized to time-matched DMSO. On the procedure:
as §1

Series [6] relates to COX. As to conditions: cited from earlier work.
Series [7] relates to prostoglandin E2 (PGE2) levels in flat mucosa. As to conditions: 300 mg/day, one month; cited from earlier work.
In series [8] the test system is patients. As to conditions: human, in vivo; cited from earlier work.
For series [9] the following is noted: cited from earlier work.

Here are results for five compounds from US10655183B2, “Carcinoma diagnosis and treatment based on ODC1 genotype” (THE ARIZONA BOARD OF REGENTS ON BEHALF OF THE UNIVERSITY OF …, priority 2014, dated 2020).

Structures are written as SMILES.

As a reminder, the IC50 is the point on the concentration scale where inhibition reaches its midpoint. Higher therefore signals weaker potency.

As to `NCCCC(N)(C(=O)O)C(F)F` (racemic) [DFMO, 2-(difluoromethyl)-dl-ornithine], the toxicity result in [1] was “relatively non-toxic”. For the same compound, the “decrease in tumor putrescine levels” value in series [2] is recorded as 90%.

The compound `COc1ccc2c(c1)c1c(C)c3cnccc3c(C)c1n2CCCN` [NSC176327] returned an IC50 in series [3] of 2 µM. The “reduction of ODC1-luciferase reporter expression” value in [4] is given as 43.6%; in series [5] it was 47.5%.

Turning to `CC1=C(CC(=O)O)c2cc(F)ccc2/C1=C\c1ccc(S(C)(=O)=O)cc1` [Sulindac sulfone], the COX-inhibitory activity entry in series [6] was “lacks COX-inhibitory activity”.

As for `CC(C)Cc1ccc(C(C)C(=O)O)cc1` (centres unmarked) [ibuprofen], the “PGE2 levels in flat mucosa” value in [7] was “significant decrease”.

Turning to `CC1=C(CC(=O)O)c2cc(F)ccc2/C1=C\c1ccc([S+](C)[O-])cc1` (centres unmarked) [sulindac, (Z)-5-fluoro-2-methyl-1-((4 (methylsulfinyl)phenyl)methylene) 1H-indene-3-acetic acid], in series [8], the “patients with mild gastrointestinal effects” value is roughly 20%; the “patients with skin rash and pruritus” value is on record as 5%. Moreover, the “fraction of the drug absorbed” value in [9] (oral administration) is “about 90%”. Moreover, in series [9] (oral, fasting patients), the “time to peak plasma levels” value is on record as “about 2 h”.
